Source: ChEMBL document CHEMBL1201862, “PubChem BioAssay data set” (2004)
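Method: 48-hour compound exposure of cells in 96-well plates, five concentrations, linear interpolation of endpoints. GI50: concentration for 50% inhibition of growth.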 Calls of active or inactive are those of the source. No stated cut-off is given here; in the data, active = GI50 up to about 1.1 µM and inactive = higher.

Tests used:
Experiment in all cases: growth of human tumour cells (NCI), 48 h
[1] = tested on: 786-0
[2] = tested on: A498
[3] = tested on: CAKI-1
[4] = tested on: HCC 2998
[5] = tested on: HL-60
[6] = tested on: HOP-62
[7] = tested on: HOP-92
[8] = tested on: HT-29
[9] = tested on: KM12
[10] = tested on: LOX IMVI
[11] = tested on: M14
[12] = tested on: MOLT-4
[13] = tested on: NCI-H226
[14] = tested on: OVCAR-3
[15] = tested on: OVCAR-5
[16] = tested on: SF-539
[17] = tested on: SNB-75
[18] = tested on: U-251
[19] = tested on: UACC-257

Measured: GI50

Nc1ccnc2c1ncn2[C@H]1C[C@H](O)[C@@H](CO)O1
inactive: [1] > 100 µM | [2] > 100 µM | [3] > 100 µM | [4] > 100 µM | [5] > 100 µM | [6] > 100 µM | [7] > 100 µM | [8] > 100 µM | [9] > 100 µM | [10] > 100 µM | [11] > 100 µM | [12] > 100 µM | [13] > 100 µM | [14] > 100 µM | [15] > 100 µM | [16] > 100 µM | [17] > 100 µM | [18] > 100 µM | [19] > 100 µM

Cc1cc2cc3c(Cl)c(CCCl)c(C)nc3cc2c(Cl)c1CCCl
inactive: [1] 24.5 µM | [2] 19.2 µM | [4] 17.5 µM | [5] 11.5 µM | [6] 13.8 µM | [7] 13.9 µM | [8] 18.5 µM | [9] 17.9 µM | [10] 15.2 µM | [12] 16 µM | [13] 3.73 µM | [14] 13.5 µM | [16] 12.1 µM | [17] 17 µM | [18] 23.5 µM | [19] 18 µM

Oc1ccc(Cl)cc1C1=NC(NCNC2=NC(c3ccccc3)CC(c3cc(Cl)ccc3O)=N2)=NC(c2ccccc2)C1 (stereo unspecified)
inactive: [1] > 100 µM | [2] > 100 µM | [3] 94.2 µM | [4] > 100 µM | [5] > 100 µM | [6] > 100 µM | [7] > 100 µM | [8] 70.8 µM | [9] > 100 µM | [10] > 100 µM | [11] > 100 µM | [13] > 100 µM | [14] 60.1 µM | [15] 44.1 µM | [16] > 100 µM | [17] > 100 µM | [18] > 100 µM | [19] > 100 µM

CC(=O)Oc1cc2c(n(C)c1=O)CCC2
inactive: [1] > 100 µM | [2] > 100 µM | [3] > 100 µM | [4] 81.7 µM | [5] 81.5 µM | [6] > 100 µM | [7] > 100 µM | [8] > 100 µM | [9] > 100 µM | [10] 96.4 µM | [11] > 100 µM | [12] > 100 µM | [13] > 100 µM | [15] > 100 µM | [16] > 100 µM | [17] > 100 µM | [18] > 100 µM | [19] > 100 µM

COCn1c(C)c(C)c2c(=O)oc(=O)[nH]c21
inactive: [1] > 100 µM | [2] > 100 µM | [3] 8.24 µM | [4] > 100 µM | [5] 54.8 µM | [6] > 100 µM | [7] > 100 µM | [8] > 100 µM | [9] > 100 µM | [10] > 100 µM | [11] > 100 µM | [12] > 100 µM | [13] > 100 µM | [15] > 100 µM | [16] > 100 µM | [17] > 100 µM | [18] > 100 µM | [19] > 100 µM

CC(=O)NC1C(OCc2ccccc2)OC(CO)C(O)C1OCC(=O)N[C@@H](C)C(=O)N[C@H](CCC(=O)NCCCNc1ccc([N+](=O)[O-])c2[nH]c3ccccc3c(=O)c12)C(N)=O (stereo partly specified)
inactive: [1] 34.2 µM | [2] > 100 µM | [3] > 100 µM | [4] 49.3 µM | [5] > 100 µM | [6] 65 µM | [7] > 100 µM | [8] 36.8 µM | [9] 93.5 µM | [10] 52.6 µM | [11] > 100 µM | [13] 25.5 µM | [14] > 100 µM | [15] > 100 µM | [16] 53.2 µM | [17] 46.6 µM | [18] 48.3 µM | [19] 54 µM

O=C(O)c1ccccc1/C=C1\Cc2ccc3c(c2C1=O)CCCC3
inactive: [1] 98.9 µM | [2] 30.8 µM | [4] 31.3 µM | [5] 26.4 µM | [6] 49.7 µM | [7] 14.3 µM | [8] 50.6 µM | [9] 39.8 µM | [10] 40 µM | [11] 28.9 µM | [12] 25.2 µM | [13] 28.6 µM | [14] 31 µM | [15] 73.1 µM | [16] 26.4 µM | [17] 27 µM | [18] 44.7 µM | [19] 25.1 µM

NC(=O)NNCc1ccccc1
inactive: [1] > 100 µM | [2] > 100 µM | [3] > 100 µM | [4] > 100 µM | [5] > 100 µM | [6] > 100 µM | [7] 51.5 µM | [8] > 100 µM | [9] > 100 µM | [10] > 100 µM | [11] > 100 µM | [12] > 100 µM | [13] > 100 µM | [14] > 100 µM | [15] > 100 µM | [16] > 100 µM | [18] > 100 µM | [19] > 100 µM

NC(=S)N/N=C\CC(O)(C(F)(F)F)C(F)(F)F
inactive: [1] > 10 µM | [2] > 10 µM | [3] > 10 µM | [4] > 10 µM | [5] > 10 µM | [6] > 10 µM | [7] > 10 µM | [8] > 10 µM | [9] > 10 µM | [10] > 10 µM | [11] > 10 µM | [12] > 10 µM | [13] > 10 µM | [14] > 10 µM | [16] > 10 µM | [17] > 10 µM | [18] > 10 µM | [19] > 10 µM

CCN1C[C@]2(COC)[C@H](O)C[C@H](OC)[C@]34C1[C@H]([C@H](OC)[C@H]23)[C@]1(OC(C)=O)[C@H]2[C@@H](OC(=O)c3ccccc3)[C@](O)(C[C@H]24)[C@@H](OC)[C@@H]1O
inactive: [1] > 100 µM | [2] > 100 µM | [3] > 100 µM | [4] > 100 µM | [5] > 100 µM | [7] > 100 µM | [8] > 100 µM | [9] > 100 µM | [10] > 100 µM | [11] > 100 µM | [12] > 10 µM | [13] > 100 µM | [15] > 100 µM | [16] > 100 µM | [17] 31.1 µM | [18] > 100 µM | [19] > 100 µM

Nc1ccc(C(=O)CC2(O)C(=O)Nc3c(Cl)cc(Cl)cc32)cc1 (stereo unspecified)
inactive: [1] > 100 µM | [2] > 100 µM | [4] > 100 µM | [5] 24.9 µM | [6] > 100 µM | [7] > 100 µM | [8] > 100 µM | [9] 83 µM | [10] 34.5 µM | [11] > 100 µM | [12] 46.8 µM | [13] > 100 µM | [14] > 100 µM | [15] > 100 µM | [16] > 100 µM | [17] 58.1 µM | [18] 27.2 µM | [19] 75.5 µM
